Values quoted from earlier work as cited in patent publication US20250236629A1, “MEDIUM- OR MACRO-CYCLIC BENZYL-SUBSTITUTED HETEROCYCLE DERIVATIVES AND RELATED USES” (CENTESSA PHARMACEUTICALS (UK) LIMITED, priority 2022, published 2025).
Like-named read-outs stand apart in the source and are kept apart here.

Experiments:
OX2R = target: T1, OX2R (Mus musculus, UniProt P58308); details: subcutaneous, cited from earlier work
T1 construct: host or cells: mice (WT, orexin-deficient and NT1 models), endogenous receptor in brain
T1 sequence (P58308 1-460): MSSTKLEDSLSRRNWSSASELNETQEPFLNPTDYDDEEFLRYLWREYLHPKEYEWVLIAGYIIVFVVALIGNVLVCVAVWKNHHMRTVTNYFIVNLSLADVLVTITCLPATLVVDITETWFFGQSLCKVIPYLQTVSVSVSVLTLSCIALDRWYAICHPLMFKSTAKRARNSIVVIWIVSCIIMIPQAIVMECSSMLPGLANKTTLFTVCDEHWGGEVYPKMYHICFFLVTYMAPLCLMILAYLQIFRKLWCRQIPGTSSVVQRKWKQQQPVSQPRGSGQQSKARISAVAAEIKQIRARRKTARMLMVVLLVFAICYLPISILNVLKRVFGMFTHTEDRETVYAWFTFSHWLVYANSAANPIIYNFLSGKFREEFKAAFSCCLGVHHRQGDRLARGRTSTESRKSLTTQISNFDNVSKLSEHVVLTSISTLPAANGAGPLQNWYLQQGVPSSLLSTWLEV

individuals with NT1 = details: initial clinical studies; cited from earlier work

## COC(=O)N1CCC[C@H](NS(C)(=O)=O)[C@@H]1CO[C@H]1CC[C@@H](c2ccccc2)CC1 [TAK-925]
OX2R; OX2R-knockout mice
  wakefulness: not in OX2R-knockout mice
OX2R; WT mice
  wakefulness: modestly increased wakefulness
Individuals with NT1
  cataplexy: trends for decreasing cataplexy
  wakefulness: substantial levels of increased wakefulness
